The values below come from article PMC6329626 (British Journal of Pharmacology, 2018).

The conditions of series [1]: read-out: Average Cmax in patients; patients taking 1000 mg orally; cited from earlier work.
The next series concerns HLM from 16 donors. In kind it is in vitro ADME, human. The conditions noted are these: for Pearson's r, FLX hydroxylation vs phenacetin O-deethylation: CYP1A2; for Pearson's r, FLX hydroxylation vs coumarin 7-hydroxylation: CYP2A6; for Pearson's r, FLX hydroxylation vs diclofenac 4′-hydroxylation: CYP2C9.
The test system of the next series is biliary epithelial cells. The conditions noted are these: ref Lakehal et al., 2001; cited from earlier work.
The target in a further series is recombinant human CYP3A4 (Homo sapiens, UniProt P08684). The series can be described thus: Enzyme kinetics of flucloxacillin hydroxylation by CYP3A4 Supersomes. Conditions: 100 nM CYP3A4 Supersomes, 10 min.
Sequence of recombinant human CYP3A4 (P08684 whole entry): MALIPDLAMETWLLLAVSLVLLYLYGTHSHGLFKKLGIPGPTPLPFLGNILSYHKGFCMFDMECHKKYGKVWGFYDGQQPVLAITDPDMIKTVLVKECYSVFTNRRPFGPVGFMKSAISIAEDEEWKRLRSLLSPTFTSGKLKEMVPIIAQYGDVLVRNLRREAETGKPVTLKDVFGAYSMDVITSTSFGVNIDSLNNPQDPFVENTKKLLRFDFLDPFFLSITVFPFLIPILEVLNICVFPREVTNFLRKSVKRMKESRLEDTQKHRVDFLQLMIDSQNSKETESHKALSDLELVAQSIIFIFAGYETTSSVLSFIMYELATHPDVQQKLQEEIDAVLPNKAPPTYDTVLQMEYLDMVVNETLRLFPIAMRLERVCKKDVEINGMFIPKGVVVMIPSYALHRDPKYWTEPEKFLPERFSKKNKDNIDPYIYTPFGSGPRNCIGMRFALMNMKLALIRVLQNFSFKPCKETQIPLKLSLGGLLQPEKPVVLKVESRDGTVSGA
Series [2] deals with pooled HLM. The series can be described thus: Enzyme kinetics of 5′-HM-FLX formation from flucloxacillin by pooled HLM. In kind it is in vitro ADME, human. The conditions noted are these: 0.5 mg·mL^−1 pooled HLM, 10 min, Michaelis–Menten fit.
Series [3] concerns pooled HLM. In words: Inhibition of 5′-HM-FLX formation by pooled HLM by CYP-specific inhibitors. Format: biochemical, human. Conditions: 10 μM inhibitor; pooled HLM.
Series [4] concerns CYP3A (flucloxacillin 5′-hydroxylation). The series is described as above. In kind it is biochemical, human. Conditions: human, pooled human liver microsomes, probe flucloxacillin (formation of 5′-HM-FLX), 10 and 100 μM. (Liver microsomes are a subcellular fraction often used to study metabolism.)
For series [5], the system named is HLM. Conditions: 25 μM sulfaphenazole; ref Lakehal et al., 2001; cited from earlier work.
The next series addresses recombinant CYP3A7 (Homo sapiens, UniProt P24462). The series can be described thus: Inhibition by sulfaphenazole of CYP3A7 Supersomes. Format: biochemical. Conditions: testosterone 50 μM.
For series [6], the target named is CYP3A4 (testosterone 6β-hydroxylation) in HLM (Homo sapiens, UniProt P08684). In words: Inhibition by sulfaphenazole of testosterone hydroxylation in HLM. In kind it is biochemical.
Sequence of CYP3A4 (testosterone 6β-hydroxylation) in HLM (P08684 whole entry): as above
The test system of series [7] is HLM. Conditions: ref Towles et al., 2016; cited from earlier work.
Substrate in series [8]: Cc1onc(-c2c(F)cccc2Cl)c1C(=O)N[C@@H]1C(=O)N2[C@@H]1SC(C)(C)[C@@H]2C(=O)O
The series can be described thus: cells, lysate or membranes named. In kind it is in vitro ADME, human. Conditions: other: 100 nM CYP3A7 Supersomes, 10 min; pH 7.4; 37.0 °C.

Read-outs that look alike come from different tables or passages of the source.

A word on the Cmax: it is the maximum level reached in the sampled fluid or tissue. The term inhibition denotes the drop in the measured response relative to a control, in per cent.

Regarding `Cc1onc(-c2c(F)cccc2Cl)c1C(=O)N[C@@H]1C(=O)N2[C@@H]1SC(C)(C)[C@@H]2C(=O)O` [flucloxacillin], the Cmax in series [1] was 100 µM. Further, in the series with HLM from 16 donors (10 μM FLX), the “Pearson's r, FLX hydroxylation vs phenacetin O-deethylation” value is recorded as 0.04; the “Pearson's r, FLX hydroxylation vs coumarin 7-hydroxylation” value was 0.45; the “Pearson's r, FLX hydroxylation vs diclofenac 4′-hydroxylation” value is recorded as 0.78. Further, in the series with HLM from 16 donors (100 μM FLX), the “Pearson's r, FLX hydroxylation vs phenacetin O-deethylation” value is on record as 0.10; the “Pearson's r, FLX hydroxylation vs coumarin 7-hydroxylation” value was 0.45; the “Pearson's r, FLX hydroxylation vs diclofenac 4′-hydroxylation” value was determined as 0.58. For the same molecule, the “Pearson's r, FLX hydroxylation vs amodiaquine N-deethylation” value in the series with HLM from 16 donors (CYP2C8, 10 μM FLX) is recorded as 0.50. The “Pearson's r, FLX hydroxylation vs mephenytoin 4′-hydroxylation” value in the series with HLM from 16 donors (CYP2C19, 10 μM FLX) stood at 0.45. For the same molecule, in the series on HLM from 16 donors (CYP3A4, 10 μM FLX), the “Pearson's r, FLX hydroxylation vs midazolam 1′-hydroxylation” value worked out at 0.58 and the “Pearson's r, FLX hydroxylation vs testosterone 6β-hydroxylation” value was 0.69. Also, the “Cytotoxicity to isolated biliary epithelial cells” value in the series with biliary epithelial cells is recorded as “without effect”. The “K M of 5′-HM-FLX formation” value at recombinant human CYP3A4 was 124 ± 15 µM. Also, in the series with pooled HLM [2], the “K M of 5′-HM-FLX formation” value is 284 ± 38 µM and the “Vmax of 5′-HM-FLX formation” value is 30 ± 2 pmol·min^−1·mg^−1 protein.

Regarding `COCCCC/C(=N\OCCN)c1ccc(C(F)(F)F)cc1` [fluvoxamine], the “Inhibition of 5′-HM-FLX formation” value with pooled HLM [3] is reported as “did not show significant inhibition”.

`CC(=O)N1CCN(c2ccc(OCC3COC(Cn4ccnc4)(c4ccc(Cl)cc4Cl)O3)cc2)CC1` (stereo not shown) [ketoconazole] gave an inhibition at 1 μM in [4] of 50%.

Take `Nc1ccc(S(=O)(=O)Nc2ccnn2-c2ccccc2)cc1` [sulfaphenazole]: the “Inhibition of HLM-catalysed hydroxylation of flucloxacillin” value in the series on HLM [5] is “no inhibition”. Moreover, the “Inhibition of 6β-hydroxylation of testosterone” value at recombinant CYP3A7 is on record as “not affected”. Moreover, the “Inhibition of testosterone hydroxylation” value in [6] is “but not testosterone hydroxylation”. Also, the “Inhibition of bioactivation of hydroxylapatinib by HLM” value in the series on HLM [7] was “significantly inhibited”.

B1: recombinant human CYP3A7 (Homo sapiens) (protein)
chain: MDLIPNLAVETWLLLAVSLILLYLYGTRTHGLFKKLGIPGPTPLPFLGNALSFRKGYWTFDMECYKKYRKVWGIYDCQQPMLAITDPDMIKTVLVKECYSVFTNRRPFGPVGFMKNAISIAEDEEWKRIRSLLSPTFTSGKLKEMVPIIAQYGDVLVRNLRREAETGKPVTLKHVFGAYSMDVITSTSFGVSIDSLNNPQDPFVENTKKLLRFNPLDPFVLSIKVFPFLTPILEALNITVFPRKVISFLTKSVKQIKEGRLKETQKHRVDFLQLMIDSQNSKDSETHKALSDLELMAQSIIFIFAGYETTSSVLSFIIYELATHPDVQQKVQKEIDTVLPNKAPPTYDTVLQLEYLDMVVNETLRLFPVAMRLERVCKKDVEINGMFIPKGVVVMIPSYVLHHDPKYWTEPEKFLPERFSKKNKDNIDPYIYTPFGSGPRNCIGMRFALVNMKLALVRVLQNFSFKPCKETQIPLKLRFGGLLLTEKPIVLKAESRDETVSGA
On to B1, for which, in series [8], the kcat was found to be 193 ± 7 pmol·min^−1·nmol^−1 P450.
